One compound from US8518989B2, “Prodrugs of short-chain fatty acids and treatment methods” (Georgia Health Sciences University Research Institute, Inc., priority 2005, dated 2013) can be followed below.

For assay [1], the target named is T1, rat ATB^0,+ (Rattus norvegicus, UniProt Q334I2).
T1 sequence (Q334I2 1-640): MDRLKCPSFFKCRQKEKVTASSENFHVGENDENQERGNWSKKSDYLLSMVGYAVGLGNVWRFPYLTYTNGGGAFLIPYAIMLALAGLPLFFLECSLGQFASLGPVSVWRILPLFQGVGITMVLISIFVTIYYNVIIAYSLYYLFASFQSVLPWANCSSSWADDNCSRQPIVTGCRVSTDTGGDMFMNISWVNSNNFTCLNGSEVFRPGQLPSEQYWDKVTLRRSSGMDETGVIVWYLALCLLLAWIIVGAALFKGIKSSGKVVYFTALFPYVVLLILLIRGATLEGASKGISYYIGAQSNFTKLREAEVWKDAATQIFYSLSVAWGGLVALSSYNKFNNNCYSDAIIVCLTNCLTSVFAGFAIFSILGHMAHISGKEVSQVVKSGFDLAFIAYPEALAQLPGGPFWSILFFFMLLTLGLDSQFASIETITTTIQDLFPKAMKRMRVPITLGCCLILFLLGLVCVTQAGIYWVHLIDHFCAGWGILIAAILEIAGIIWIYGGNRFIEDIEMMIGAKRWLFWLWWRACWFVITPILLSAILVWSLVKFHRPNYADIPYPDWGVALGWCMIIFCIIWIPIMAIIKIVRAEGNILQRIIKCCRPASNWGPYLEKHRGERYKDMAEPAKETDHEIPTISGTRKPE
As to the kind of experiment: Inhibition of ATB0,+-mediated 3H-glycine uptake in HRPE cells expressing cloned rat ATB0,+. Format: cell-based. The note with it: 5 mM; HRPE cells.

The target in assay [2] is T1, rat ATB^0,+. As to the kind of experiment: Substrate-induced inward currents in Xenopus oocytes expressing rat ATB0,+ (voltage clamp). Type of assay: cell-based. The note with it: 5 mM; voltage clamp. The protocol: Experiments with HRPE cells were repeated at least three times with three independent transfections and transport measurements made in duplicate in each experiment. Electrophysiological measurements of substrate-induced currents were repeated at least three times with separate oocytes. The data are presented as means±S.E.M. of these replicates. The kinetic parameters, Michaelis constant (Kt) and maximal velocity (Vmax) were calculated by fitting the ATB^0,+-specific transport data to the Michaelis-Menten equation describing a single saturable transport system. Na^+ and Cl^−-activation kinetics were analyzed by fitting the ATB^0,+-specific transport data to the Hill equation for the determination of K0.5 values for Na^+ and Cl^− (concentration of Na^+ and Cl^− necessary for half-maximal activation) and the Hill coefficient (nH; the number of Na^+ or Cl^− ions involved in the activation process). The kinetics parameters were first determined by non-linear regression methods and subsequently confirmed by linear regression methods using the commercially-available computer program SigmaPlot, version 6.0 (SPSS Inc., Chicago, Ill., US).
Therefore, it was necessary to determine whether or not the α-carboxyl esters of neutral amino acids are transportable substrates for ATB^0,+. For this purpose, we used the X. laevis oocyte expression system. Cloned rat ATB^0,+ was functionally expressed in oocytes by injection of corresponding cRNA, and the transport of substrates via the transporter was monitored by inward currents when the oocytes were exposed to putative substrates under voltage-clamp conditions.

A further assay deals with HDAC. In words: HDAC activity in a cell-free system with MCF7 cell lysate. Format: biochemical, human. On the procedure: Measurement of HDAC activity in a cell-free system: This was done using a commercially available assay kit (BioVision). MCF7 cell lysate was used as a source of HDAC activity. 50 μg of lysate protein was incubated with various monocarboxylates (1 mM), or trichostatin A (20 μM), and the reaction was initiated by the addition of HDAC substrate. The reaction was then terminated and the deacetylated product was measured according to the manufacturer's instructions. The activity is expressed in nmoles of deacetylated product formed per μg of MCF7 cell lysate protein per 30 min.

In the case of `CC(=O)O` [acetate], the “Inhibition of ATB0,+-mediated glycine transport (in words)” value on rat ATB^0,+ [1] is recorded as “did not inhibit glycine transport”. Besides, the “Inward currents induced in ATB0,+-expressing oocytes (in words)” value on rat ATB^0,+ [2] is recorded as “did not induce detectable current”. Besides, the “HDAC inhibition (in words)” value with HDAC was “least potent”.
